Molecules are shown by their SMILES. “And” between values parts separate entries of the source, which are not always exact repeats. Equal entries are not always repeated.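 Results reflect a 48-hour exposure of cells in 96-well plates to compound at five concentrations. The concentration for 50% growth inhibition is given as GI50. TGI marks complete inhibition of growth.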

Assay in all cases: inhibition of tumour cell growth, NCI panel, 48 h
In test [1] the test system is 786-0 renal.
Test [2] concerns HCT-116 colon.
For test [3], the system named is HOP-62 NSCLC.
The subject of test [4] is HOP-92 NSCLC.
Test [5] has as its system KM12 colon.
Test [6] relates to OVCAR-3 ovarian.
The test system of test [7] is SK-MEL-2 melanoma.
The subject of test [8] is SK-MEL-28 melanoma.
In test [9] the test system is NCI/ADR-RES ovarian.

As for `CN(C)CCNC(=O)c1cccc2nc3ccc4cccnc4c3nc12`, the TGI turned out to be 10.9 µM in test [1]; 2.43 µM in [2]; 1.86 µM in test [3]; 1.99 µM in [4]; 3.54 µM in [5]; 4.33 µM in test [6]. For the same compound, the TGI was 2.11 µM in test [7] and 2.28 µM in test [8].
As to `O=C1NC(=O)C(=Cc2c3ccccc3cc3ccccc23)C(=O)N1`, the TGI in [1], in test [2], in test [3], in [4] and in [8] was over 100 µM in each case.
In the case of `CC(C)(CN1CCOCC1)C(=O)/C=C/c1ccc(/C=C/C(=O)C(C)(C)CN2CCOCC2)cc1`, the TGI in [1] was 4.11 µM; in test [2], 1.62 µM; in test [3] it was 4.79 µM; in [4], 6.49 µM; in [5] it was 2.92 µM; in test [6] it was 2.46 µM.
As for `CC(=O)O[C@@]12CO[C@@H]1C[C@H](O)[C@@]1(C)C(=O)[C@H](O)C3=C(C)[C@@H](OC(=O)[C@H](O)[C@@H](NC(=O)OC(C)(C)C)c4ccccc4)C[C@@](O)([C@@H](OC(=O)c4ccccc4)C12)C3(C)C` (stereo partly drawn), the GI50 in test [1] was 0.00549 µM; in test [2], under 0.005 µM; in test [3] it was under 0.005 µM; in test [4], < 0.005 µM and 0.0181 µM; in [5] it was under 0.005 µM; in test [9], 0.35 µM and 2.05 µM. The GI50 is under 0.005 µM in test [6], 0.0355 µM in test [7] and 12.7 µM in test [8]. Besides, the TGI in test [1] is 50 µM; in [2] it was 50 µM and > 100 µM; in test [3], 50 µM and > 100 µM; in [4] it was 17.1 µM and 8.9 µM; in test [5], 50 µM and 27.7 µM; in test [9] it was 2.77 µM and 15.4 µM. Also, the TGI in test [7] was over 100 µM; in [8], 50.7 µM.
With `Cc1cc2c(c3nocc13)C(=O)c1ccccc1C2=O`, the TGI in [1], in test [3], in test [4], in test [5], in [6] and in test [7] was over 100 µM in each case. The same compound gave a TGI in test [8] of over 100 µM.
For `O=C(O)C(Br)C(Br)C(=O)O` (stereo not drawn), the TGI in test [1], in test [2], in test [3], in test [4], in test [5] and in test [9] was over 100 µM each time. Also, the TGI in test [6], in test [7] and in test [8] was over 100 µM in each case.
Regarding `Cc1cc(C)nc(NS(=O)(=O)c2ccc(Nc3c4ccccc4nc4c(C(=O)Nc5ccc(S(=O)(=O)Nc6cc(C)on6)cc5)ccc(Cl)c34)cc2)n1`, the TGI is 34.1 µM in test [1]; 40.5 µM in test [2]; 42.5 µM in test [3]; 37.1 µM in test [5]; 31.3 µM in test [6]; 69.4 µM in test [8].
With `COc1cccc2c1C(=O)c1c(O)c3c(c(O)c1C2=O)C[C@@](O)(C(C)=O)C[C@@H]3OC1CC([N+]([O-])(Cc2ccccc2)Cc2ccccc2)C(O)C(C)O1` (stereo partly drawn), the TGI amounted to 2.86 µM in [1]; 2.98 µM in test [3]; 3.14 µM in [4]; 2.9 µM in test [5]; 3.28 µM in test [6]; 3.46 µM in test [7].
Take `CCN1C(=O)N(CC)C2C1NN=c1s/c(=C\c3cccs3)c(=O)n12` (stereo not drawn): the GI50 in test [1] was 1.03 µM; in test [2], 0.0903 µM; in [3], 0.302 µM; in test [4], over 25.8 µM; in test [5] it was 0.0545 µM; in [9], 0.0831 µM. Moreover, the GI50 in test [6] was 0.0462 µM; in test [7], 1.41 µM. Besides, the TGI was over 100 µM in test [1]; over 100 µM in test [2]; over 100 µM in test [3]; over 100 µM in [4]; over 82.6 µM in test [5]; over 100 µM in test [9]. Besides, the TGI in test [7] and in [8] was over 100 µM each time.
On to `COc1ccc2c3c(c(C(=O)O)oc13)CCC2`, for which the TGI in [1], in test [2], in [3], in [4], in test [5] and in test [6] was over 100 µM each time. In addition, the TGI in test [7] and in test [8] was over 100 µM in each case.
Take `CCC#CC[C@H](O)C/C=C1/C(=O)C=C[C@@H]1C/C=C\CCCC(=O)OC`: the GI50 in test [1] was 1.22 µM; in test [2], 0.235 µM; in [3], 1.56 µM; in test [4], 1.52 µM; in test [9] it was 1.16 µM; in test [6], 1.55 µM. The GI50 is 0.995 µM in [7] and 1.12 µM in test [8]. Also, the TGI in [1] was found to be 2.67 µM; in test [2], 1.1 µM; in [3], 4.49 µM; in [4], 5.81 µM; in test [9], 3.4 µM; in test [6] it was 6.11 µM. Moreover, the values for the TGI in [7] and in [8] were 2.76 µM and 3.25 µM, respectively.
With `CC1(C)OC2CC3COC(=O)C3CC2O1` (stereo not drawn), the TGI in test [1], in test [2], in test [3], in test [4], in test [5] and in test [6] was over 100 µM throughout. Also, the TGI in [7] and in [8] was over 100 µM each time.
As to `O=C1NC(O)c2ccccc2O1` (stereo not drawn), the TGI in test [1], in [2], in test [3], in [4], in test [5] and in test [9] was over 100 µM in each case. Further, the TGI in [6], in test [7] and in test [8] was over 100 µM in each case.
Consider `CSC(=Nc1ccccc1Cl)NC(=O)c1ccc(Br)cc1`, for which the TGI in [1] is 86.3 µM; in test [2], over 100 µM; in test [3], 55.3 µM; in test [5] it was over 100 µM; in test [6] it was over 100 µM; in test [7], over 100 µM. The TGI in [8] was determined as 66.3 µM.

Source of the values: PubChem BioAssay (NCI).
